Earlier results, collected in patent US8476227B2, “Methods of activating a melanocortin-4 receptor pathway in obese subjects” (Ethicon Endo-Surgery, Inc., priority 2010, dated 2013).

Conditions: rat models; background statement, no dose or regimen given

## NDP-MSH
  body weight gain: attenuate
  food intake: attenuate
